How the values were obtained:
Settings in all cases: 48 h
CU-ACC1 [1] = experiment: AC50 viability; higher = less potent
Summary of the method: (§1)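 For each of three adrenocortical carcinoma cell lines, 500–1,000 cells/well were placed in 5 µL medium in 1,536-well plates. A 23 nL volume of every library compound was added at 11 concentrations. Following 48 h, a 15-minute room-temperature CellTiter-Glo step preceded luminescence reading, with signals normalised per plate to vehicle and empty-well controls. AC50 and area under the curve were derived by curve fitting, retaining only inhibitory or non-responding curve classes.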

CU-ACC2 = experiment: area under concentration-response curve (viability) (AUC (a.u.)); higher = less active
Summary of the method: as §1

CU-ACC1 [2] = experiment: as above
Summary of the method: as §1

NCI-H295R = experiment: as above
Summary of the method: as §1

Row | Compound | AC50 viability (CU-ACC1 [1]) [µM] | area under concentration-response curve (CU-ACC2) | area under concentration-response curve (CU-ACC1 [2]) | area under concentration-response curve (NCI-H295R)
1 | CO[C@H]1C[C@@H]2CC[C@@H](C)[C@@](O)(O2)C(=O)C(=O)N2CCCC[C@H]2C(=O)O[C@H]([C@H](C)C[C@@H]2CC[C@@H](OCCO)[C@H](OC)C2)CC(=O)[C@H](C)/C=C(/C)[C@@H](O)[C@@H](OC)C(=O)[C@H](C)C[C@H](C)\C=C/C=C\C=C/1C | 18.6 | 439 | 421 | –
2 | O=C(Nc1ccc(OC(F)(F)Cl)cc1)c1cnc(N2CC[C@@H](O)C2)c(-c2ccn[nH]2)c1 | 33.2 | 574 | 442 | –
3 | CC1Oc2cc(cnc2N)-c2c(nn(C)c2C#N)CN(C)C(=O)c2ccc(F)cc21 (stereo unspecified) | 6.61 | 485 | 463 | –
4 | CN(C)Cc1ccc(-c2nc3cccc4c3n2CCNC4=O)cc1 | 33.2 | 216 | 294 | –
5 | COC1=CC=CC2=C1C(=C(/C(=O)N(C)C3=CC=C(C=C3)C(F)(F)F)C(=O)N2C)/O | 0.0525 | 187 | 279 | –
6 | CCC1CCCCN1C(=O)n1ncc(C(O)(c2ccccc2)c2ccccc2)n1 (stereo unspecified) | 18.6 | 571 | 435 | –
7 | O=C(O)CC[C@H]1CC[C@@](c2cc(F)ccc2F)([S+](=O)([O-])c2ccc(Cl)cc2)CC1 | 0.00105 | – | 359 | 255
8 | N[S+](=O)([O-])c1ccc([S+](=O)([O-])Nc2cccc3c(Cl)c[nH]c23)cc1 | 8.33 | 527 | 404 | –
9 | CN(C)c1ccccc1CN1CCCN(Cc2ccccc2N(C)C)C1c1ccncc1 | 8.33 | – | 448 | 444
10 | OC1=CC=C(C=C1)C/2=C/C3=C(OC2)C=C(O)C=C3 | 18.6 | – | 436 | 471
11 | CCn1c(-c2nonc2N)nc2cncc(CNC3CCNCC3)c21 | 14.8 | – | 477 | 526
12 | Cc1nc2cc(C(=O)N3CCC4(CC3)CC(=O)c3c(cnn3C(C)C)C4)ccc2[nH]1 | 26.3 | – | 467 | 568
13 | O=C(O)c1ccc(O)c2ncc(N3CCOCC3)cc12 | 23.5 | 525 | 442 | –
14 | CC(=O)O[C@@]1(CC[C@H]2[C@@H]3\C=C(Cl)/C4=C/C(=O)[C@@H]5C[C@@H]5[C@]4(C)[C@H]3CC[C@]12C)C(C)=O | 2.35 | – | 325 | 304
15 | CC(=O)N(O)CCCCCNC(=O)CCC(=O)N(O)CCCCCNC(=O)CCC(=O)N(O)CCCCCN | 11.8 | – | 379 | 432
16 | Clc1ccc(C(Cn2ccnc2)OCc2ccsc2Cl)c(Cl)c1 (stereo unspecified) | 16.6 | 584 | 476 | –
17 | CCOC(=O)c1c(CSc2ccccc2)n(C)c2cc(Br)c(O)c(CN(C)C)c12 | 37.2 | 600 | 476 | –
18 | CN1CCC(CC1)=C2C3=C(C=CC=C3)\C=C/C4=C2C=CC=C4 | 8.33 | 480 | 373 | –
19 | OC1=CC2=C(C=C1)C(=O)\C(=C(O2)\C3=CC(=C(O)C=C3)O)O | 14.8 | 548 | 451 | –
20 | CCOC(=O)[C@@]1(CCCCCCOc2ccc(Cl)cc2)CO1 | 23.5 | 624 | 382 | –
21 | CN1CCc2c(n(Cc3ccc(C(=O)NO)cc3)c3ccccc23)C1 | 29.5 | 482 | 426 | –
22 | FC(F)(F)c1ccc(Nc2nc3cc(Oc4ccnc(-c5ncc(C(F)(F)F)[nH]5)c4)ccc3[nH]2)cc1 | 4.68 | 603 | 479 | –
23 | O=C1CSC(=O)N1C(CCc1ccncc1)COc1ccc(-c2cccc([N+](=O)[O-])c2)cc1 (stereo unspecified) | 2.63 | – | 309 | 396
24 | NC(=O)c1noc([C@H](CCCC2CCCCC2)CC(=O)NO)n1 | 41.7 | 531 | 446 | –
25 | CN(C)C(=O)c1ccc([S+](=O)([O-])c2ccc(NC(=O)[C@@](C)(O)C(F)(F)F)c(Cl)c2)cc1 | 5.25 | 640 | 346 | –
26 | O=C(CCN1CCN(C(=O)OCc2cc(Cl)cc(Cl)c2)CC1)c1ccc2[nH]c(=O)oc2c1 | 23.5 | 495 | 468 | –
27 | c1nc2c(NC3CCCCC3)nc(Nc3ccc(N4CCOCC4)cc3)nc2[nH]1 | 0.00118 | – | 283 | 274

— the supplement of paper PMC10949913
